Test results published in US12077503B2, “Substituted cyclic amides and their use as herbicides” (FMC CORPORATION, priority 2015, dated 2024).

Legend:
Format in all cases: in vivo
[1] = tested on: barnyardgrass (Echinochloa crus-galli); assay: Test A preemergence; conditions: Echinochloa crus-galli, pre-emergence, 240 h, Preemergence
Procedure, shortened: (§1)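 Compounds were formulated in a non-phytotoxic solvent mixture with surfactant and applied as a preemergence directed soil spray after seeding, or sprayed postemergence over plants 2 to 10 cm tall at the one- to two-leaf stage. Evaluation after about 10 d compared treated with untreated controls, using a scale from 0 (no effect) to 100 (complete control).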

[2] = tested on: ragweed (common ragweed, Ambrosia elatior); assay: Test A preemergence; conditions: Ambrosia artemisiifolia, pre-emergence, 240 h, Preemergence
Procedure, shortened: as §1

[3] = tested on: ryegrass, Italian (Italian ryegrass, Lolium multiflorum); assay: Test A preemergence; conditions: Lolium multiflorum, pre-emergence, 240 h, Preemergence
Procedure, shortened: as §1

Kochia (Kochia scoparia) [4] = assay: Test A preemergence; conditions: Bassia scoparia, pre-emergence, 240 h, Preemergence
Procedure, shortened: as §1

[5] = tested on: giant foxtail (Setaria faberii); assay: Test A preemergence; conditions: Setaria faberi, pre-emergence, 240 h, Preemergence
Procedure, shortened: as §1

[6] = tested on: pigweed (Amaranthus retroflexus); assay: Test A preemergence; conditions: Amaranthus retroflexus, pre-emergence, 240 h, Preemergence
[7] = tested on: blackgrass (Alopecurus myosuroides); assay: Test A postemergence; conditions: Alopecurus myosuroides, post-emergence, 240 h, read-out: Plant response rating, Blackgrass
Procedure, shortened: as §1

[8] = tested on: barnyardgrass (Echinochloa crus-galli); assay: Test A postemergence; conditions: Echinochloa crus-galli, post-emergence, 240 h, read-out: Plant response rating, Barnyardgrass
Procedure, shortened: as §1

[9] = tested on: wheat (Triticum aestivum); assay: Test A postemergence; conditions: Triticum aestivum, post-emergence, 240 h, read-out: Plant response rating, Wheat
Procedure, shortened: as §1

[10] = tested on: ragweed (common ragweed, Ambrosia elatior); assay: Test A postemergence; conditions: Ambrosia artemisiifolia, post-emergence, 240 h, read-out: Plant response rating, Ragweed
Procedure, shortened: as §1

[11] = tested on: ryegrass, Italian (Italian ryegrass, Lolium multiflorum); assay: Test A postemergence; conditions: Lolium multiflorum, post-emergence, 240 h, read-out: Plant response rating, Ryegrass, Italian
Procedure, shortened: as §1

Kochia (Kochia scoparia) [12] = assay: Test A postemergence; conditions: Bassia scoparia, post-emergence, 240 h, read-out: Plant response rating, Kochia
Procedure, shortened: as §1

[13] = tested on: giant foxtail (Setaria faberii); assay: Test A postemergence; conditions: Setaria faberi, post-emergence, 240 h, read-out: Plant response rating, Foxtail, Giant
Procedure, shortened: as §1

corn (Zea mays) = assay: Test A postemergence; conditions: Zea mays, post-emergence, 240 h
Procedure, shortened: as §1

[14] = tested on: Galium (catchweed bedstraw, Galium aparine); assay: Test A postemergence; conditions: Galium, post-emergence, 240 h, read-out: Plant response rating, Galium
Procedure, shortened: as §1

[15] = tested on: pigweed (Amaranthus retroflexus); assay: Test A postemergence; conditions: Amaranthus retroflexus, post-emergence, 240 h, read-out: Plant response rating, Pigweed
Procedure, shortened: as §1

[16] = 125 g ai/ha, postemergence, visual rating after approx. 10 d, 0 to 100 scale (0 no effect, 100 complete control)
[17] = Postemergence, 500 g ai/ha, 0 to 100 scale where 0 is no effect and 100 is complete control

CN1C[C@H](c2ccc(F)c(F)c2)[C@@H](C(=O)Nc2ccccc2F)C1=O [Compound 596, (3S,4S)-4-(3,4-difluorophenyl)-N-(2-fluorophenyl)-1-methyl-2-oxo-3-pyrrolidinecarboxamide] was tested, and the pest or weed control at 125 g/ha ([1]; 125 g ai/ha, visual injury after approximately 10 d, 0 to 100 scale where 0 is no effect and 100 is complete control, read-out: Plant response rating, Barnyardgrass) was 90%, the pest or weed control at 500 g/ha ([1]; 500 g ai/ha, visual injury approx. 10 d, read-out: Barnyardgrass plant response rating (0 to 100 scale, 0 is no effect, 100 is complete control)) was 100% and the pest or weed control at 125 g/ha ([2]; 125 g ai/ha, visual injury after approximately 10 d, 0 to 100 scale where 0 is no effect and 100 is complete control, read-out: Plant response rating, Ragweed) was 0%. For the same molecule, the pest or weed control at 500 g/ha ([2]; 500 g ai/ha, visual injury approx. 10 d, read-out: Ragweed plant response rating (0 to 100 scale, 0 is no effect, 100 is complete control)) was 20%, the pest or weed control at 125 g/ha ([3]; 125 g ai/ha, visual injury after approximately 10 d, 0 to 100 scale where 0 is no effect and 100 is complete control, read-out: Plant response rating, Ryegrass, Italian) was 40% and the pest or weed control at 500 g/ha ([3]; 500 g ai/ha, visual injury approx. 10 d, read-out: Ryegrass, Italian plant response rating (0 to 100 scale, 0 is no effect, 100 is complete control)) was 50%. The pest or weed control at 125 g/ha (Kochia (Kochia scoparia) [4]; 125 g ai/ha, visual injury after approximately 10 d, 0 to 100 scale where 0 is no effect and 100 is complete control, read-out: Plant response rating, Kochia) was 20%, the pest or weed control at 500 g/ha (Kochia (Kochia scoparia) [4]; 500 g ai/ha, visual injury approx. 10 d, read-out: Kochia plant response rating (0 to 100 scale, 0 is no effect, 100 is complete control)) was 70% and the pest or weed control at 125 g/ha ([5]; 125 g ai/ha, visual injury after approximately 10 d, 0 to 100 scale where 0 is no effect and 100 is complete control, read-out: Plant response rating, Foxtail, Giant) was 100%. It also gave a pest or weed control at 500 g/ha ([5]; 500 g ai/ha, visual injury approx. 10 d, read-out: Foxtail, Giant plant response rating (0 to 100 scale, 0 is no effect, 100 is complete control)) of 100%, a pest or weed control at 125 g/ha ([6]; 125 g ai/ha, visual injury after approximately 10 d, 0 to 100 scale where 0 is no effect and 100 is complete control, read-out: Plant response rating, Pigweed) of 0% and a pest or weed control at 500 g/ha ([6]; 500 g ai/ha, visual injury approx. 10 d, read-out: Pigweed plant response rating (0 to 100 scale, 0 is no effect, 100 is complete control)) of 40%. The pest or weed control at 125 g/ha [7, 16] was 20%, the pest or weed control at 500 g/ha [7, 17] was 50% and the pest or weed control at 125 g/ha [8, 16] was 90%. It also gave a pest or weed control at 500 g/ha [8, 17] of 90%, a plant injury at 125 g/ha [9, 16] of 0% and a plant injury at 500 g/ha [9, 17] of 50%. The pest or weed control at 125 g/ha [10, 16] was 0%, the pest or weed control at 500 g/ha [10, 17] was 0% and the pest or weed control at 125 g/ha [11, 16] was 0%. The pest or weed control at 500 g/ha [11, 17] was 40%, the pest or weed control at 125 g/ha (Kochia (Kochia scoparia) [12]; [16]) was 40% and the pest or weed control at 500 g/ha (Kochia (Kochia scoparia) [12]; [17]) was 60%. The pest or weed control at 125 g/ha [13, 16] was 90%, the pest or weed control at 500 g/ha [13, 17] was 90% and the Corn plant response rating (crop injury, 0 = no effect, 100 = complete kill) at 125 g/ha (corn (Zea mays); [16]) was 20%. It also gave a Corn plant response rating (crop injury, 0 = no effect, 100 = complete kill) at 500 g/ha (corn (Zea mays); [17]) of 60%, a pest or weed control at 125 g/ha [14, 16] of 30% and a pest or weed control at 500 g/ha [14, 17] of 50%. For the same molecule, the pest or weed control at 125 g/ha [15, 16] was 0% and the pest or weed control at 500 g/ha [15, 17] was 20%.
